Assay results as given in patent publication US9125898B2, “Acetam derivatives for pain relief” (NEUROTUNE AG, priority 2008, dated 2015).

Key:
[1] = system: chronic constriction injury induced hyperalgesia in the rat; assay: Chronic constriction injury induced hyperalgesia in the rat (paw-pressure test); assay type: in vivo; conditions: for Paw pressure, pre-test before all treatments: baseline, drug 100 mg/kg p.o.; for Paw pressure, 5 day 30 min / Paw pressure, 10 day 30 min / Paw pressure, 14 day 30 min / Paw pressure, 14 day 4 h / Paw pressure, 14 day 8 h / Paw pressure, 15 day 24 h / Paw pressure, 18 day 3 days: 100 mg/kg p.o. once a day for 14 days
Procedure: In the repeated administration protocol, NT-13317 was orally administered at 100 mg/kg in 1% CMC once a day for 14 days starting from the day of sciatic nerve ligation.
Peripheral rat mononeuropathy (Chronic constriction injury): Neuropathy was induced according to the procedure described by Bennett and Xie (Bennett G J, Xie Y K. A peripheral mononeuropathy in rat that produces disorders of pain sensation like those seen in man. Pain 1988; 33: 87-107).
Briefly, rats were anaesthetized with chloral hydrate 400 mg/kg intraperitoneally (i.p.); under aseptic conditions, the right common sciatic nerve was exposed at the level of the middle thigh by blunt dissection. Proximal to the trifurcation, the nerve was carefully freed from the surrounding connective tissue and four chromic cat gut ligatures (4-0, Ethicon, Norderstedt, Germany) were tied loosely around it with about 1 mm spacing. After haemostasis was confirmed, the incision was closed in layers. Then animals were allowed to recover from anaesthesia and surgery and were kept one per cage with free access to water and standard laboratory chow.
Statistical analysis: All experimental results are given as the mean±S.E.M. An analysis of variance, ANOVA, followed by Fisher's protected least significant difference procedure for post hoc comparison, were used to verify significance between two means of behavioural results. Data were analyzed with the StatView software for the Macintosh (1992). P values≦0.05 were considered significant.
Data of mechanical threshold (PWT) were converted to a percentage of the maximal possible effect (% MPE), according to Veneroni, O. et al. as follows: %MPE=(left dose PWT−left pre-dose control PWT)/(left naïve PWT−left pre-dose PWT)*100
The obtained % MPE were employed for ED50 calculation (obtained by Grafit v. 5.0), defined as the dose producing 50% reversal of mechanical allodynia.

[2] = system: oxaliplatin induced hyperalgesia in the rat; assay: Oxaliplatin induced hyperalgesia in the rat paw-pressure test; assay type: in vivo; conditions: for Paw pressure, pre-test before all treatments: baseline, drug 100 mg/kg p.o.; for Paw pressure, 1a week - 30 min / Paw pressure, 2a week - 30 min / Paw pressure, 3a week - 30 min / Paw pressure, 3a week - 4 h / Paw pressure, 3a week - 8 h / Paw pressure, 3a week - 24 h: drug 100 mg/kg p.o. once daily
Procedure: Drugs: The following substance was used: NT-13317 (batch No. RR0011-184A1 supplied by Brane Discovery Srl, Gerenzano Italy). NT-13317 was dissolved in DMSO 20%, 10% glucose and administered at the dose of 10, 30 and 100 mg/kg p.o.
Gabapentin (Sigma) was dissolved in 1% CMC (carboxymethylcellulose-Sigma) and orally administered at 100 mg/kg, and dissolved in saline and i.v. administered at 3 mg/kg.
Oxaliplatin model: A peripheral neuropathy was induced in adult rats, by administration of oxaliplatin (Tocris), at 2.4 mg/kg i.p. in saline once a day on days 1, 2, 3, 4, 5, 8, 9, 10, 11, 12, 15, 16, 17, 18, 19 (cumulative dose 36 mg/kg) according to [1].
In the first experiment NT-13317 and gabapentin were given chronically at the dose 100 mg/kg po starting 3 days before oxaliplatin and every day for 5 days/week for 3 weeks.
A dose-response experiment was then performed with NT-13317 (10, 30 and 100 mg/kg po) using the same treatment schedule.
Paw pressure test: Paw mechanical sensitivity was determined using a Randall & Selitto apparatus exerting a force that increases at constant rate (32 g/s). The stimulus at which rats withdrawn the paw was evaluated before and at different times after treatment. Results represent the mean of mechanical thresholds expressed as grams. To avoid any possible damage to the animal paw the maximum applied force was fixed at 240 g.
Statistical analysis: All experimental results are given as the mean±S.E.M. An analysis of variance, ANOVA, followed by Fisher's protected least significant difference procedure for post hoc comparison, were used to verify significance between two means of behavioral results. Data were analyzed with the StatView software for the Macintosh (1992). P values≦0.05 were considered significant.

## NCC1(CC(=O)O)CCCCC1 [GABAPENTIN, Gabapentin, reference compound]
[1]; CCI group
  Paw pressure, pre-test before all treatments: 62.9 ± 3.3 g
[1]; CCI
  Paw pressure, 5 day 30 min: 52.4 ± 4.6 g
  Paw pressure, 10 day 30 min: 52.7 ± 5.6 g
  Paw pressure, 14 day 30 min: 56.7 ± 6.2 g
  Paw pressure, 14 day 4 h: 57.1 ± 5.5 g
  Paw pressure, 14 day 8 h: 62.3 ± 6.5 g
  Paw pressure, 15 day 24 h: 59.6 ± 5.7 g
  Paw pressure, 18 day 3 days: 58.2 ± 5.5 g
[1]; SHAM group
  Paw pressure, pre-test before all treatments: 61.8 ± 2.9 g
[1]; SHAM
  Paw pressure, 5 day 30 min: 63.2 ± 4.1 g
  Paw pressure, 10 day 30 min: 69.2 ± 5.1 g
  Paw pressure, 14 day 30 min: 71.2 ± 6.3 g
  Paw pressure, 14 day 4 h: 69.2 ± 5.6 g
  Paw pressure, 14 day 8 h: 70.4 ± 5.9 g
  Paw pressure, 15 day 24 h: 68.5 ± 5.8 g
  Paw pressure, 18 day 3 days: 66.4 ± 4.8 g
[1]; p.o. 100 mg/kg once a day for 14 days from the day of sciatic nerve ligation
  Effect on paw pressure test after the last administration (in words): still active after 72 hr
[2]; 100 mg/kg p.o. once daily, 5 days/week for 3 weeks
  Reduction of mechanical hyperalgesia over three weeks of treatment (in words): much lower effect only at the end of the third week
[2]; gabapentin 100 mg/kg p.o.
  Pharmacodynamic profile at the end of the third week: sporadic, intermediate efficacy at 30 min
[2]; oxaliplatin i.p. group
  Paw pressure, pre-test before all treatments: 61.1 ± 4.0 g
[2]; oxaliplatin i.p.
  Paw pressure, 1a week - 30 min: 47.8 ± 5.6 g
  Paw pressure, 2a week - 30 min: 49.0 ± 5.5 g
  Paw pressure, 3a week - 30 min: 59.5 ± 5.5 g
  Paw pressure, 3a week - 4 h: 55.6 ± 4.2 g
  Paw pressure, 3a week - 8 h: 43.8 ± 6.1 g
  Paw pressure, 3a week - 24 h: 42.2 ± 5.5 g
[2]; vehicle i.p. (no oxaliplatin) group
  Paw pressure, pre-test before all treatments: 62.7 ± 3.9 g
[2]; vehicle i.p. (no oxaliplatin)
  Paw pressure, 1a week - 30 min: 65.6 ± 4.9 g
  Paw pressure, 2a week - 30 min: 73.7 ± 5.2 g
  Paw pressure, 3a week - 30 min: 82.3 ± 5.2 g
  Paw pressure, 3a week - 4 h: 76.2 ± 4.8 g
  Paw pressure, 3a week - 8 h: 78.2 ± 5.6 g
  Paw pressure, 3a week - 24 h: 68.7 ± 5.9 g
